Legend:
[1] = test system: Human lung fibroblasts (hLFB); experiment: CXCL10 qPCR, 2,3-cGAMP +/- heparin; assay type: cell-based; details: 2,3-cGAMP 1 μg/mL, 24 hours
Procedure: FIG. 2 includes plots showing that heparin enhances STING agonist activity. FIG. 2A includes plots showing human lung fibroblasts (hLFB) and H69-mesenchymal (H69M) small cell lung cancer (SCLC) cells treated with 2,3-cGAMP 1 μg/mL+/−heparin 1 μg/mL for 24 hours prior to CXCL10 qPCR and collection of conditioned media for C—X—C motif chemokine 10 (CXCL10) ELISA (enzyme-linked immunosorbent assay). […] THP1=differentiated macrophages. hLFB=human lung fibroblasts. MEF=mouse embryonic fibroblasts. HUE=human umbilical endothelial cells. ANOVA p<0.001 for all figures. *p<0.05 ****p<0.0001 by Bonferroni corrected pairwise comparison.
Also, Human lung fibroblasts (hLFB) were treated with 2,3-cGAMP 1 μg/mL (hereafter referred to as “cGAMP)+/−heparin 1 μg/mL for 24 hours prior to CXCL10 qPCR and collection of conditioned media for CXCL10 ELISA (FIG. 2A).
RNA extraction was performed using the RNeasy Mini Kit (Qiagen, Cat. #74106). RNA samples (1000 ng) were reverse-transcribed into cDNA using Superscript® First-Strand Synthesis SuperMix (Thermo Fisher Scientific, Cat. #1683483). Quantitative real-time PCR was then performed using Power SYBR Green PCR Master Mix (Thermo Fisher Scientific, Cat. #4367659). The sequences of the primers used for qRT-PCR were obtained from previously published literature. Error bars represent technical replicates of each experiment.

[2] = test system: 631M/RPPM mouse SCLC cells; experiment: CXCL10 ELISA of conditioned media, STING agonists +/- heparins; assay type: cell-based; details: for interaction between heparin and STING agonist (CXCL10 ELISA): 24 hours, p<0.0001 by 2-WAY ANOVA (FIG. 3C); for interaction between heparin and STING agonist on the amount of CXCL10 in the media: +/- 1 μg/mL heparin, 1 or 10 μg/mL cGAMP, 50 μM ADU, 0.2 mg/ml CMA, 24 hours (FIG. 3A)
Procedure: (§1) 1 mL of conditioned media from each treatment plate was collected after 24 hr culture unless otherwise specified. The collected media was centrifuged at 1400 RPM for 3 minutes to remove any cellular debris before use in the ELISA. Values represent the average of at least two independent biological replicates.

[3] = test system: BenMen 1 cells; RPPM mouse SCLC and MS428 human mesothelioma cell lines; experiment: STING pathway western blot and CXCL10 ELISA with TBK1 or JAK/STAT inhibitor; assay type: cell-based; details: MRT TBK1 inhibitor 1 μM or 5 μM; ruxolitinib 1 μM
Procedure: FIG. 4A includes immunofluorescent images of fixed hLFB cells after 24 hours of treatment with cyanine-5 (Cy5) labeled 2,3-cGAMP 1 μg/mL+/−heparin 1 μg/mL. The staining represents actin phalloidin, DAPI (4′,6-diamidino-2-phenylindole), and Cy5-labeled cGAMP. FIG. 4B includes a western blot for STING pathway components in BEN-MEN-1 meningioma cells treated for 72 hours with 50 μM ADU+/−heparin 10 μg/mL and MRT TANK-binding kinase-1 (TBK1) inhibitor 5 μM. FIG. 4C includes plots showing CXCL10 ELISA after 24 hours treatment with 2,3-cGAMP (1 μg/mL) or ADU S-100 (50 μM unless otherwise indicated)+/−heparin (1 μg/mL in RPPM or 10 μg/mL in MS428), MRT TBK1 inhibitor 1 μM, or ruxolitinib JAK/STAT inhibitor (“ruxo”; ruxolitinib) 1 μM in RPPM mouse SCLC and MS428 human mesothelioma cell lines. FIG. 4D includes a plot showing the qPCR for Programmed death-ligand 1 (PD-L1) after 24 hours treatment 50 μM ADU+/−heparin 10 μg/mL and MRT TBK1 inhibitor in BEN-MEN-1 meningioma cells. ANOVA p<0.001 for all graphs. *p<0.05 ****p<0.0001 by Bonferroni corrected pairwise comparison.
The serine/threonine protein kinase, TBK1, is a critical regulator in innate immune signaling pathways that lead to the induction of type I interferon (IFN) and interferon-stimulated genes (ISGs). Dysregulation of TBK1 activity is often associated with autoimmune diseases and cancer. […]

[4] = test system: H196 SCLC and MS428 meningioma cells; experiment: Luminex cytokine array; assay type: cell-based, human; details: 5 μM MRT TBK1 inhibitor
Procedure: FIGS. 19A to 19B includes diagrams showing that heparin alters the release of multiple cytokines after STING agonist treatment. […] L2FC=LOG2 fold change.
The influence of heparin (with and without a STING agonist) on IL-6 and IL-8 levels was examined. […] This effect was reversed by MRT TBK1 inhibitor.
Multiplex assays were performed utilizing the Human Cytokine/Chemokine Maganetic Bead Panel (Cat. #HCYTMAG-60K-PX30) on a Luminex MAGPIX system (Merck Millipore). Conditioned media concentrations (pg/ml) for each cytokine were derived from parameter curve fitting models. Fold changes relative to the corresponding control were calculated and plotted as log 2FC.

[5] = test system: BEN-MEN-1 meningioma cells; experiment: CXCL10 ELISA of conditioned media, ADU S-100 dose and time course +/- heparin; assay type: cell-based; details: 50 μg/mL and 100 μg/mL ADU-S100, heparin 10 μg/mL, 24 hours
Procedure: FIGS. 3A to 3B include plots showing that heparin dose-dependently enhances STING agonist effects across compounds. […] FIG. 3D includes a plot of showing the time course data for BenMen 1 cells with treatment for 3 and 6 days. The data reflects 24 hours treatment prior to collection of conditioned media for CXCL10 ELISA FIG. 3E includes plots showing RPPM mouse SCLC cells treated with 1 μg/mL 2,3-cGAMP and 1 μg/mL unfractionated heparin, low-molecular weight heparin (LMWH), heparin pentasaccharide fondaparinux, 6-desulfated heparin, chondroitin sulfate (CS)+/−the Janus kinase/signal transducers and activators of transcription (JAK/STAT) inhibitor ruxolitinib (ruxo 1 μg/mL) for 24 hours prior to CXCL10 ELISA. H69M human SCLC cells treated with 10 μg/mL 2,3-cGAMP+/−heparin 10 μg/mL or desulfated heparins 2-O desulfated (2DES), N-desulfated (NDES), and 6-O desulfated (6DES) 24 hours prior to CXCL10 ELISA. All panels reflect 24 hours treatment prior to collection of conditioned media for CXCL10 ELISA.
A 24-hour dose response study was also conducted on BEN-MEN-1 meningioma cells (hereafter “BenMen 1 cells”) and RPPM mouse SCLC cells. BenMen 1 cells were treated with various doses of ADU S-100 (0, 10, 20, 30, 50, and 100 μg/mL) either in the presence or absence of heparin (10 μg/mL). […]

[6] = test system: B16F10 mouse melanoma cells; Lewis Lung Carcinoma (LLC) mouse non-small-cell lung cancer cells; experiment: CXCL10 ELISA of conditioned media, interferons +/- heparin; assay type: cell-based; details: interferon 5 ng/mL +/- heparin 1 μg/mL, 24 hours
Procedure: as §1

Molecule: cyclic GMP-AMP [cGAMP]
- STING activity (CXCL10 expression, qPCR), cGAMP in the absence of heparin [1]: negligible STING activity
- interaction between heparin and STING agonist (CXCL10 ELISA) [2]: significant interaction
- interaction between heparin and STING agonist on the amount of CXCL10 in the media [2]: significant interaction

Molecule: O=C(NCCCNc1nc(Nc2cccc(CN3CCOCC3)c2)ncc1C1CC1)C1CCC1 [MRT TBK1 inhibitor, MRT67307]
- STING activity after addition of inhibitor to heparin and ADU [3]: reduced the STING activity
- effect of heparin plus ADU on cytokines after TBK1 inhibitor [4]: reversed

Molecule: Nc1ncnc2c1ncn2[C@@H]1O[C@@H]2CO[P@](=O)(S)O[C@@H]3C(O)[C@@H](CO[P@@](=O)(S)O[C@H]2[C@H]1O)O[C@H]3n1cnc2c(N)ncnc21 (stereo partly drawn) [ADU-S100]
- interaction between heparin and STING agonist (CXCL10 ELISA) [2]: significant interaction
- interaction between heparin and STING agonist on the amount of CXCL10 in the media [2]: significant interaction
- STING activity (CXCL10 concentration) in the presence vs absence of heparin [5]: significantly higher STING activity

Molecule: IFNg: interferon gamma (R&D systems)
- amount of CXCL10 in the media with heparin compared to interferon alone [6]: not seen
